Data published in ChEMBL document CHEMBL6109182, “Regio- and Stereoselective Synthesis of Nitro-fatty Acids as NRF2 Pathway Activators Working under Ambient or Hypoxic Conditions” (J Med Chem, 2025).
Active and inactive are the calls of the source. No cut-off for these calls is given here.

Legend:
[1] = target: T1, Nuclear factor erythroid 2-related factor 2 (Mus musculus) (UniProt Q60795); test: Activation of NRF2 in C57BL/6 mouse bone marrow cells assessed as increase in Gclm gene expression exposed to 4% oxygen at 2 uM incubated for 4 hrs by qRT-PCR analysis; type: cell-based; details: Bone marrow cell
T1 sequence (whole entry): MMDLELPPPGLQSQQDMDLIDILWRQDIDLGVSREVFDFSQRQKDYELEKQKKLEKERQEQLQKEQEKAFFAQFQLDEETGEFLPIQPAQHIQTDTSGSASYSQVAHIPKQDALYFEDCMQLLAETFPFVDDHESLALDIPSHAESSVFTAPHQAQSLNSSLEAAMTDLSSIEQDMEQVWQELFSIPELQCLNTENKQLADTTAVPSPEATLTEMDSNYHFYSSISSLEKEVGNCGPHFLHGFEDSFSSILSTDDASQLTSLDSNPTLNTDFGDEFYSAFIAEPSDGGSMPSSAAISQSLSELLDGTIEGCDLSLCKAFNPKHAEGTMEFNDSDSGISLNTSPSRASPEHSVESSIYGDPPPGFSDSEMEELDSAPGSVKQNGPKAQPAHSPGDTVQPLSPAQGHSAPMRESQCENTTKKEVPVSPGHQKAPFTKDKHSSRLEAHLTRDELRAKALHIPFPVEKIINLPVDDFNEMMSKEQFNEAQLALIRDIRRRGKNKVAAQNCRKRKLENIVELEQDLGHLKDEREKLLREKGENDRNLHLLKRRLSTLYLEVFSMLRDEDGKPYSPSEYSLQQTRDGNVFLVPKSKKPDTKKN

[2] = target: T1, Nuclear factor erythroid 2-related factor 2 (Mus musculus); test: Induction of NRF2 stabilization in C57BL/6 mouse bone marrow cells exposed to 1% oxygen at 2 uM incubated for 1 hr; type: cell-based; details: Bone marrow cell
[3] = target: T1, Nuclear factor erythroid 2-related factor 2 (Mus musculus); test: Activation of NRF2 in C57BL/6 mouse bone marrow cells assessed as increase in Gclm gene expression exposed to 1% oxygen at 2 uM incubated for 4 hrs by qRT-PCR analysis; type: cell-based; details: Bone marrow cell
[4] = target: T1, Nuclear factor erythroid 2-related factor 2 (Mus musculus); test: Activation of NRF2 in C57BL/6 mouse bone marrow cells exposed to 1% oxygen at 2 uM incubated for 1 hr; type: cell-based; details: Bone marrow cell
[5] = target: T1, Nuclear factor erythroid 2-related factor 2 (Mus musculus); test: Induction of NRF2 stabilization in C57BL/6 mouse bone marrow cells exposed to 4% oxygen at 2 uM incubated for 1 hr; type: cell-based; details: Bone marrow cell
[6] = target: T1, Nuclear factor erythroid 2-related factor 2 (Mus musculus); test: Activation of NRF2 in C57BL/6 mouse bone marrow cells exposed to 21% oxygen at 2 uM incubated for 1 hr; type: cell-based; details: Bone marrow cell
[7] = target: T1, Nuclear factor erythroid 2-related factor 2 (Mus musculus); test: Activation of NRF2 in C57BL/6 mouse bone marrow cells assessed as increase in Hmox1 gene expression exposed to 4% oxygen at 2 uM incubated for 4 hrs by qRT-PCR analysis; type: cell-based; details: Bone marrow cell
[8] = target: T1, Nuclear factor erythroid 2-related factor 2 (Mus musculus); test: Activation of NRF2 in C57BL/6 mouse bone marrow cells exposed to 4% oxygen at 2 uM incubated for 1 hr; type: cell-based; details: Bone marrow cell
[9] = target: T1, Nuclear factor erythroid 2-related factor 2 (Mus musculus); test: Activation of NRF2 in C57BL/6 mouse bone marrow cells assessed as increase in Hmox1 gene expression exposed to 1% oxygen at 2 uM incubated for 4 hrs by qRT-PCR analysis; type: cell-based; details: Bone marrow cell
[10] = target: T1, Nuclear factor erythroid 2-related factor 2 (Mus musculus); test: Induction of NRF2 stabilization in C57BL/6 mouse bone marrow cells exposed to 21% oxygen at 2 uM incubated for 1 hr; type: cell-based; details: Bone marrow cell
Bone marrow cell = test: Upregulation of Nfe2l2 gene expression in C57BL/6 mouse bone marrow cells exposed to 4% oxygen at 2 uM incubated for 4 hrs by qRT-PCR analysis; type: functional, cell-based
[11] = target: T1, Nuclear factor erythroid 2-related factor 2 (Mus musculus); test: Activation of NRF2 in C57BL/6 mouse bone marrow cells assessed as fold increase in HO-1 level exposed to hypoxic condition at 2 uM incubated for 4 hrs by Western blot analysis; type: cell-based; details: Bone marrow cell, filed as activator
[12] = target: T1, Nuclear factor erythroid 2-related factor 2 (Mus musculus); test: Activation of NRF2 in C57BL/6 mouse bone marrow cells assessed as increase in GCLM level exposed to 21% oxygen at 2 uM incubated for 7 hrs by Western blot analysis; type: cell-based; details: Bone marrow cell
[13] = target: T1, Nuclear factor erythroid 2-related factor 2 (Mus musculus); test: Activation of NRF2 in C57BL/6 mouse bone marrow cells assessed as increase in GCLM level exposed to 1% oxygen at 2 uM incubated for 7 hrs by Western blot analysis; type: cell-based; details: Bone marrow cell
[14] = target: T1, Nuclear factor erythroid 2-related factor 2 (Mus musculus); test: Activation of NRF2 in C57BL/6 mouse bone marrow cells assessed as nuclear translocation of NRF2 exposed to 1% oxygen at 2 uM incubated for 1 hr by Western blot analysis; type: cell-based; details: Bone marrow cell
[15] = target: T1, Nuclear factor erythroid 2-related factor 2 (Mus musculus); test: Activation of NRF2 in C57BL/6 mouse bone marrow cells assessed as increase in HO-1 level exposed to 21% oxygen at 2 uM incubated for 4 hrs by Western blot analysis; type: cell-based; details: Bone marrow cell, filed as activator
[16] = target: T1, Nuclear factor erythroid 2-related factor 2 (Mus musculus); test: Activation of NRF2 in C57BL/6 mouse bone marrow cells assessed as nuclear translocation of NRF2 exposed to 1% oxygen at 2 uM incubated for 1 hr by IHC analysis; type: cell-based; details: Bone marrow cell, filed as activator
[17] = target: T1, Nuclear factor erythroid 2-related factor 2 (Mus musculus); test: Activation of NRF2 in C57BL/6 mouse bone marrow cells assessed as fold increase in HO-1 level exposed to 1% oxygen at 2 uM incubated for 4 hrs by Western blot analysis relative to control; type: cell-based; details: Bone marrow cell, filed as activator

## CCCCCCC=C/C=C(\CCCCCCCC(=O)O)[N+](=O)[O-]
[1]; filed as activator
  Activity: Active; Compound Exhibited Upregulation That Was Dependent On Oxygen Levels Or Specific Target Genes
[2]
  Activity: Active
[3]; filed as activator
  Activity: Active; Compound Exhibited Upregulation That Was Dependent On Oxygen Levels Or Specific Target Genes
[4]; filed as activator
  Activity: Active
[5]
  Activity: Active
[6]
  Activity: inactive
[7]; filed as activator
  Activity: Active; Compound Exhibited Upregulation That Was Dependent On Oxygen Levels Or Specific Target Genes
[8]; filed as activator
  Activity: Active
[9]; filed as activator
  Activity: Active; Compound Exhibited Upregulation That Was Dependent On Oxygen Levels Or Specific Target Genes
[10]
  Activity: Active
Bone marrow cell
  Activity: inactive

## CCCCC/C=C\C/C(=C\CCCCCCCC(=O)O)[N+](=O)[O-]
[11]
  Activity: Active
[12]; filed as activator
  Activity: Active
[1]; filed as activator
  Activity: Active; Compound Exhibited Upregulation That Was Dependent On Oxygen Levels Or Specific Target Genes
[2]
  Activity: Active
[3]; filed as activator
  Activity: Active; Compound Exhibited Upregulation That Was Dependent On Oxygen Levels Or Specific Target Genes
[5]
  Activity: Active
[6]
  Activity: inactive
[7]; filed as activator
  Activity: Active; Compound Exhibited Upregulation That Was Dependent On Oxygen Levels Or Specific Target Genes
[8]; filed as activator
  Activity: Active
[9]; filed as activator
  Activity: Active; Compound Exhibited Upregulation That Was Dependent On Oxygen Levels Or Specific Target Genes
[10]
  Activity: Active
Bone marrow cell
  Activity: inactive

## CCCCCCCCC(CCCCCCCCC(=O)O)[N+](=O)[O-] (configuration not stated)
[13]
  Activity: inactive
[12]
  Activity: inactive
[1]
  Activity: inactive
[2]
  Activity: Active
[3]
  Activity: inactive
[4]
  Activity: inactive
[5]
  Activity: Active
[6]
  Activity: inactive
[7]
  Activity: inactive
[8]
  Activity: inactive
[9]
  Activity: inactive
[14]
  Activity: inactive
[10]
  Activity: Active
Bone marrow cell
  Activity: inactive

## CCCCCCCC/C(=C\CCCCCCCC(=O)O)[N+](=O)[O-]
[13]; filed as activator
  Activity: Active
[12]; filed as activator
  Activity: Active
[15]
  Activity: Active
[1]; filed as activator
  Activity: Active
[2]
  Activity: Active
[3]; filed as activator
  Activity: Active
[4]; filed as activator
  Activity: Active
[5]
  Activity: Active
[6]
  Activity: inactive
[7]; filed as activator
  Activity: Active
[16]
  Activity: Active
[9]; filed as activator
  Activity: Active
[14]; filed as activator
  Activity: Active
[10]
  Activity: Active
Bone marrow cell
  Activity: inactive

## CCCCCCCC/C=C(\CCCCCCCC(=O)O)[N+](=O)[O-]
[13]; filed as activator
  Activity: Active
[12]; filed as activator
  Activity: Active
[15]
  Activity: Active
[1]; filed as activator
  Activity: Active
[2]
  Activity: Active
[3]; filed as activator
  Activity: Active
[4]; filed as activator
  Activity: Active
[5]
  Activity: Active
[6]
  Activity: inactive
[7]; filed as activator
  Activity: Active
[9]; filed as activator
  Activity: Active
[17]
  fold change (FC): 1.8
[14]; filed as activator
  Activity: Active
[10]
  Activity: Active
Bone marrow cell
  Activity: Active
